In US20230079819A1, “COMPOUNDS AND USES THEREOF” (Foghorn Therapeutics Inc., priority 2019, published 2023):

Columns and labels:
[1] = target: T1, BRG-1 (Homo sapiens, UniProt P51532); assay: ATPase catalytic activity of BRG-1, ADP-Glo in vitro biochemical assay; conditions: ATPase catalytic activity, 30 nM BRG-1, 400 μM ATP, read-out: BRG1 IP50 (μM)*
T1 construct: made in house; host or cells: High Five insect cells

[2] = target: T2, BRM (Homo sapiens, UniProt P51531); assay: ATPase catalytic activity of BRM, ADP-Glo in vitro biochemical assay; conditions: ATPase catalytic activity, 30 nM BRM, 400 μM ATP, read-out: BRM IP50 (μM)*
T2 construct: made in house; host or cells: High Five insect cells
T2 sequence (P51531 whole entry): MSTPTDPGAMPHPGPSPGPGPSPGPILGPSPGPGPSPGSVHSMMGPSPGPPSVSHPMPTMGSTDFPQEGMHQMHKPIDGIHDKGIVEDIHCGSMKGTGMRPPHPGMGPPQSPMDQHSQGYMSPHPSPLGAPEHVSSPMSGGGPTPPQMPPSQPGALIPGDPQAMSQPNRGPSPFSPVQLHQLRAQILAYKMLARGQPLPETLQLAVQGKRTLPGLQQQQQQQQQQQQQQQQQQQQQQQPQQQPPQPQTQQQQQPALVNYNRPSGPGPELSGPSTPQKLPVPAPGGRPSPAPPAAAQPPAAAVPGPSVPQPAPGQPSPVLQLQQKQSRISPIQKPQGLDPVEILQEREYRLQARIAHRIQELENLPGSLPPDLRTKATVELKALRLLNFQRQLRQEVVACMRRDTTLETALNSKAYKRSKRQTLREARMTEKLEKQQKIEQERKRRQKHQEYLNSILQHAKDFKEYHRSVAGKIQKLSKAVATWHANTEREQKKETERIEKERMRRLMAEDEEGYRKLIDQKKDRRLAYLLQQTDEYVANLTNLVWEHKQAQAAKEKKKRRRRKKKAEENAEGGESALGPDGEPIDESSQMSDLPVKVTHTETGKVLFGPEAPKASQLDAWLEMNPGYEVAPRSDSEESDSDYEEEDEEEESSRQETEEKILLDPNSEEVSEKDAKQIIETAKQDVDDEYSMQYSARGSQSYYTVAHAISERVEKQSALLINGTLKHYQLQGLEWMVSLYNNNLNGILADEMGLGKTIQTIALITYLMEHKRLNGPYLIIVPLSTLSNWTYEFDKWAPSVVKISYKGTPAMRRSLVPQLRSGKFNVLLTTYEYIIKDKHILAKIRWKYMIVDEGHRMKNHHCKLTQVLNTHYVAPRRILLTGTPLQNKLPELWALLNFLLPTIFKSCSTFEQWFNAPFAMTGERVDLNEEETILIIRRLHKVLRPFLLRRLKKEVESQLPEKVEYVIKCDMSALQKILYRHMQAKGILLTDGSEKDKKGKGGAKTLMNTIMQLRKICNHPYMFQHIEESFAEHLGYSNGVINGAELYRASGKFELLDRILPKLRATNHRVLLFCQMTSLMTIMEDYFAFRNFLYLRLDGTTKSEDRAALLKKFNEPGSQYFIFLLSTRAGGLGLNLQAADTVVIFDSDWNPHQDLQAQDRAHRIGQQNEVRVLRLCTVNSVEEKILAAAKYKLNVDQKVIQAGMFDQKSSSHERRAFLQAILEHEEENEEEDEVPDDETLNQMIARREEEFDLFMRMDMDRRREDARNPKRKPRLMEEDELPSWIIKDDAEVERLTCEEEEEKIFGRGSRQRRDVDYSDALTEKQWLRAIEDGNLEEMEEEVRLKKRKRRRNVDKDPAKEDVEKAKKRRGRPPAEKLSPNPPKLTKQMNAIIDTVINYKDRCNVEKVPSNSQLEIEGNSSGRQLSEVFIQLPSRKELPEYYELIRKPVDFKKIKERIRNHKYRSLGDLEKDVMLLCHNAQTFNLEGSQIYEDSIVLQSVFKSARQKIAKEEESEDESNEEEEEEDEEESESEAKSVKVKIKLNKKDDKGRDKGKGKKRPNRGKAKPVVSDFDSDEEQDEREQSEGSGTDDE

T1 sequence (P51532 whole entry): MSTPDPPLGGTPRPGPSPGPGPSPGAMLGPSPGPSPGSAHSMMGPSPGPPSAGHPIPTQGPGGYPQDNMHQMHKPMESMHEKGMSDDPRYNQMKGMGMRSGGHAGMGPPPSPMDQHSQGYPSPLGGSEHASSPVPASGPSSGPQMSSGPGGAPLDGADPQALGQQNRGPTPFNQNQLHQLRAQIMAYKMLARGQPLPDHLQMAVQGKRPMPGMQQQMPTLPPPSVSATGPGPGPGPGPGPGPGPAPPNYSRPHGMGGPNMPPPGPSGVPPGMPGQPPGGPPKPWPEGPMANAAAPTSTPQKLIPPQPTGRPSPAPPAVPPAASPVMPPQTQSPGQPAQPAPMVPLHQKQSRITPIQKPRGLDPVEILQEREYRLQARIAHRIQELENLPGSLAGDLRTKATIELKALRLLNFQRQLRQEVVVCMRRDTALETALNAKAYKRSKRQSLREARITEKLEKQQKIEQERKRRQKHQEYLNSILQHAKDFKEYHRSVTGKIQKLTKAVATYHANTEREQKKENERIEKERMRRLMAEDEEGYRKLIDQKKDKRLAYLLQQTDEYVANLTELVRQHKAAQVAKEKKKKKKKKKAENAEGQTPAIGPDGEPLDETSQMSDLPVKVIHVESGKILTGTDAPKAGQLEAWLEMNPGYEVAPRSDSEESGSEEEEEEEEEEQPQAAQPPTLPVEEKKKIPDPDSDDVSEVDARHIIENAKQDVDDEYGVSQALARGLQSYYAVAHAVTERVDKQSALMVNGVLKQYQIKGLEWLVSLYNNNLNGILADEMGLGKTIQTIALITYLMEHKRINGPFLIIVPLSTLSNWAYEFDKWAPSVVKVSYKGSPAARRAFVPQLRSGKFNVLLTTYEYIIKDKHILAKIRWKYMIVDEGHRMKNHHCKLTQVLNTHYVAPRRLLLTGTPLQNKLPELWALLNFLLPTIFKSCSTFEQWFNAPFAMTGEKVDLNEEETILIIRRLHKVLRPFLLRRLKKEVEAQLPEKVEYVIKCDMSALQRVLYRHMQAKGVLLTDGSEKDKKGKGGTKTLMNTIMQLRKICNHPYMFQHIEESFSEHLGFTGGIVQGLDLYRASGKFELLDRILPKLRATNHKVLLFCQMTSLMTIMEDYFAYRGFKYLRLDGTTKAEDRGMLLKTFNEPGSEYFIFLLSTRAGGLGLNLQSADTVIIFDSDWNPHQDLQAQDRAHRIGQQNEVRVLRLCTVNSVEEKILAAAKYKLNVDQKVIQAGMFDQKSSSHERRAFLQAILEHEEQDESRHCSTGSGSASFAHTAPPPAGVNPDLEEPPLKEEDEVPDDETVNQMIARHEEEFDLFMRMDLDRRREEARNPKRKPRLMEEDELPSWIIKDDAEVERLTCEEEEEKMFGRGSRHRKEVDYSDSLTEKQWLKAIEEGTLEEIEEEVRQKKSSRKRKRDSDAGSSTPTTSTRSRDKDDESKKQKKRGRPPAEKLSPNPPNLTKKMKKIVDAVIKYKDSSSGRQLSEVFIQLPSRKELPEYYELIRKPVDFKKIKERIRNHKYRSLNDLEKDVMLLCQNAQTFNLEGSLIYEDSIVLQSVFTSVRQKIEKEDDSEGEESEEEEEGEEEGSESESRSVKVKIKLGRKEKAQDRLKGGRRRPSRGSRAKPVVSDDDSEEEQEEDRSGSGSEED

| IC50 [1] [µM] | IC50 [2] [µM] | SMILES |
| --- | --- | --- |
| > 0.01 | > 0.01 | Cn1ccc(-c2cccc(-c3csc(NC(=O)CNC(=O)c4ccn(C(C)(C)C)c4)n3)c2)n1 [Compound 58, 1-(tert-butyl)-N-(2-((4-(3-(1-methyl-1H-pyrazol-3-yl)phenyl)thiazol-2-yl)amino)-2-oxoethyl)-1H-pyrrole-3-carboxamide] |
| < 0.01 | < 0.01 | CSCC[C@H](NC(=O)c1ccn(S(C)(=O)=O)c1)C(=O)Nc1nc(-c2cccc(-c3ccnc(C)c3)c2)cs1 [Compound 59, (S)—N-(1-((4-(3-(2-methylpyridin-4-yl)phenyl)thiazol-2-yl)amino)-4-(methylthio)-1-oxobutan-2-yl)-1-(methylsulfonyl)-1H-pyrrole-3-carboxamide] |
| < 0.01 | < 0.01 | COC[C@H](NC(=O)c1ccn(S(C)(=O)=O)c1)C(=O)Nc1nc(-c2cccc(-c3ccnc(C)c3)c2)cs1 [Compound 60, (S)—N-(3-methoxy-1-((4-(3-(2-methylpyridin-4-yl)phenyl)thiazol-2-yl)amino)-1-oxopropan-2-yl)-1-(methylsulfonyl)-1H-pyrrole-3-carboxamide] |
| < 0.01 | < 0.01 | COC[C@H](NC(=O)c1ccn(S(C)(=O)=O)c1)C(=O)Nc1nc(-c2cccc(-c3cc(C)nc(C)c3)c2)cs1 [Compound 61, (S)—N-(1-((4-(3-(2,6-dimethylpyridin-4-yl)phenyl)thiazol-2-yl)amino)-3-methoxy-1-oxopropan-2-yl)-1-(methylsulfonyl)-1H-pyrrole-3-carboxamide] |
| > 0.01 | > 0.01 | COC[C@H](NC(=O)c1ccn(C(C)(C)C)c1)C(=O)Nc1nc(-c2cccc(-c3ccn(C)n3)c2)cs1 [Compound 62, (S)-1-(tert-butyl)-N-(3-methoxy-1-((4-(3-(1-methyl-1H-pyrazol-3-yl)phenyl)thiazol-2-yl)amino)-1-oxopropan-2-yl)-1H-pyrrole-3-carboxamide] |
| > 0.01 | > 0.01 | COC[C@H](NC(=O)c1ccn(C(C)(C)C)c1)C(=O)Nc1nc(-c2ccc3ccn(C)c(=O)c3c2)cs1 [Compound 63, (S)-1-(tert-butyl)-N-(3-methoxy-1-((4-(2-methyl-1-oxo-1,2-dihydroisoquinolin-7-yl)thiazol-2-yl)amino)-1-oxopropan-2-yl)-1H-pyrrole-3-carboxamide] |
| > 0.01 | > 0.01 | COC[C@H](NC(=O)c1ccn(C(C)(C)C)c1)C(=O)Nc1nc(-c2ccc3c(c2)C(=O)N(C)CC3)cs1 [Compound 64, (S)-1-(tert-butyl)-N-(3-methoxy-1-((4-(2-methyl-1-oxo-1,2,3,4-tetrahydroisoquinolin-7-yl)thiazol-2-yl)amino)-1-oxopropan-2-yl)-1H-pyrrole-3-carboxamide] |
| < 0.01 | < 0.01 | COC[C@H](NC(=O)c1ccn(S(C)(=O)=O)c1)C(=O)Nc1nc(-c2cccc(-c3ccncn3)c2)cs1 [Compound 65, (S)—N-(3-methoxy-1-oxo-1-((4-(3-(pyrimidin-4-yl)phenyl)thiazol-2-yl)amino)propan-2-yl)-1-(methylsulfonyl)-1H-pyrrole-3-carboxamide] |
| > 0.01 | > 0.01 | COC[C@H](NC(=O)c1ccn(C(C)(C)C)c1)C(=O)Nc1nc(-c2cccc(-c3ccncn3)c2)cs1 [Compound 66, (S)-1-(tert-butyl)-N-(3-methoxy-1-oxo-1-((4-(3-(pyrimidin-4-yl)phenyl)thiazol-2-yl)amino)propan-2-yl)-1H-pyrrole-3-carboxamide] |
| < 0.01 | < 0.01 | C[C@H](NC(=O)c1ccn(S(C)(=O)=O)c1)C(=O)Nc1nc(-c2cccc(-c3ccncc3)c2)cs1 [Compound 68, N-[(1S)-1-methyl-2-oxo-2-[[4-[3-(4-pyridyl)phenyl]thiazol-2-yl]amino]ethyl]-1-methylsulfonyl-pyrrole-3-carboxamide] |
